This experiment addresses T1, RPS6KA6 (RSK4) (Homo sapiens, UniProt Q9UK32).
T1 construct: purchased Thermo Fisher Scientific (Life Technologies) SelectScreen
Briefly: SelectScreen Z'LYTE. In kind it is biochemical. An outline of the steps:
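Percent values come from Thermo SelectScreen profiling of NU5455, combining activity and binding assays. CSF1R was run in Z'LYTE format at Km app ATP, and CAMK1 in Adapta format with ATP listed at 10.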

The inhibition is the change of the read-out against control, counted positive when it falls.

T1 sequence (Q9UK32 whole entry): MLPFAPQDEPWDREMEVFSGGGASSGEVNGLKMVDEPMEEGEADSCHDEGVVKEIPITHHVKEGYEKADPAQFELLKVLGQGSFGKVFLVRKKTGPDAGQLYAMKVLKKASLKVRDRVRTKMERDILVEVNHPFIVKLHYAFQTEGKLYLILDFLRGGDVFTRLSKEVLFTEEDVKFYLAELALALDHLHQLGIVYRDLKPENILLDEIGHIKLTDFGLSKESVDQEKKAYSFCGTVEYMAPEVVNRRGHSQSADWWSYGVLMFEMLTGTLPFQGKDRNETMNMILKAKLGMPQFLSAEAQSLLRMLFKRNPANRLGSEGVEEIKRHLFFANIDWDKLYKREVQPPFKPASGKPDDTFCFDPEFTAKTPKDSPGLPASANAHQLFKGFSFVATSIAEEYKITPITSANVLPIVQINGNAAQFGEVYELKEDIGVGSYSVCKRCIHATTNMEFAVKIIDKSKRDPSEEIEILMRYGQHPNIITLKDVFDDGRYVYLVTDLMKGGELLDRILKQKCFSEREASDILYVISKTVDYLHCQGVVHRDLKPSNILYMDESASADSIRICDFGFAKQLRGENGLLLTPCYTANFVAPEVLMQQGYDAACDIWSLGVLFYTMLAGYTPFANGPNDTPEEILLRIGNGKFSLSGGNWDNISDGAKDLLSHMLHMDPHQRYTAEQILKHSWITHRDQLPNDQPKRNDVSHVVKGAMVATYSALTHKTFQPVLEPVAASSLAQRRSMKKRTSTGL

For `CN(C(=O)CN1CCOCC1)c1ccc2sc3c(-c4cccc5c(=O)cc(N6CC7CCC(C6)O7)oc45)cccc3c2c1` [NU5455], the inhibition at 1 µM turned out to be 3.8%.

For the origin of these results see publication PMC6934184, “Selective DNA-PKcs inhibition extends the therapeutic index of localized radiotherapy and chemotherapy” (The Journal of Clinical Investigation, 2019).
